Assay results reported in patent US20220073536A1 (Rigel Pharmaceuticals, Inc., priority 2003, published 2022).

Experiments:
[1] = test system: cultured human mast cells (CHMC); experiment: CHMC low cell density IgE activation: tryptase assay; format: cell-based; conditions: low cell density, IgE activation
Summary of the method: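 CHMC were seeded at 1000–1500 cells/well in MT buffer and incubated 1 hr at 37 °C. They were then stimulated with anti-IgE for 30 min at 37 °C, with unstimulated wells as controls. Released tryptase in the supernatant was measured with a fluorogenic substrate after 30 min at room temperature.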

[2] = test system: cultured human mast cells (CHMC); experiment: CHMC low cell density ionomycin activation: tryptase assay; format: cell-based; conditions: low cell density, 3 pt, read-out: LD Tryptase, CHMC, Iono, 3 pt
[3] = 3 pt, read-out: LD Tryptase, CHMC, IgE, 3 pt
[4] = 8 pt, read-out: LD Tryptase, CHMC, IgE, 8 pt
[5] = Homo sapiens, Mast cell, 3 pt, read-out: LD Tryptase, CHMC, IgE, 3 pt
[6] = Homo sapiens, Mast cell, 8 pt, read-out: LD Tryptase, CHMC, IgE, 8 pt

Row | SMILES | IC50 [1, 3] [µM] | IC50 [1, 4] [µM] | IC50 [2] [µM] | IC50 [1, 5] [µM] | IC50 ([2]; Homo sapiens, Mast cell) [µM] | IC50 [1, 6] [µM]
1 | CNC(=O)COc1cccc(Nc2ncc(F)c(Nc3ccc(Cl)c(C(=O)NC)c3)n2)c1 [Compound 477, N4-[4-Chloro-3-(N-methylamino)carbonylphenyl]-5-fluoro-N2-[3-(N-methylamino)carbonylmethyleneoxyphenyl]-2,4-pyrimidinediamine] | < 10 | < 10 | > 10 |  |  | 
2 | CNC(=O)c1ccc(Nc2ncc(F)c(Nc3ccc(Cl)c(C(=O)NC)c3)n2)cc1Cl [Compound 478, N2-[3-Chloro-4-(N-methylamino)carbonylphenyl]-N4-[4-chloro-3-(N-methylamino)carbonylphenyl]-5-fluoro-2,4-pyrimidinediamine] |  |  |  | < 10 | > 10 | 
3 | CNC(=O)c1cc(Nc2ccnc(Nc3ccc4cc[nH]c4c3)n2)ccc1Cl [Compound 479, N4-[4-Chloro-3-(N-methylamino)carbonylphenyl]-N2-(indol-6-yl)-2,4-pyrimidinediamine] |  |  |  | < 10 | > 10 | 
4 | COc1ncc(F)c(N(C)c2ccc3c(c2)OCCO3)n1 [Compound 480] |  |  |  | > 10 | > 10 | 
5 | CNC(=O)c1ccc(Nc2nc(Nc3cc(OC)cc(OC)c3)ncc2F)cc1Cl [Compound 481] |  |  |  | < 10 | > 10 | < 10
6 | CNC(=O)c1ccc(Nc2nc(Nc3cc(C)cc(C)c3)ncc2F)cc1Cl [Compound 482] |  |  |  | < 10 | > 10 | < 10
7 | Nc1cccc(Nc2nc(Cl)ncc2F)n1 [Compound 486, N4-(2-Aminopyrid-6-yl)-2-chloro-5-fluoro-4-pyrimidineamine] |  |  |  | > 10 | > 10 | 
8 | CN(c1ccc2c(c1)OCCO2)c1nc(N)ncc1F [Compound 487, N4-(3,4-Ethylenedioxyphenyl)-5-fluoro-N4-methyl-2,4-pyrimidinediamine] |  |  |  | > 10 | > 10 | 
9 | COc1cc(OC)cc(N(C)c2nc(Cl)ncc2F)c1 [Compound 488] |  |  |  | < 10 | > 10 | 
10 | CCOC(=O)c1cc2cccc(Nc3ncc(F)c(NCCO)n3)c2[nH]1 [Compound 489] |  |  |  | > 10 | > 10 | 
11 | COc1ccc(N(C)c2nc(Cl)ncc2F)c(OC)n1 [Compound 490] |  |  |  | > 10 | > 10 | 
12 | CNS(=O)(=O)c1ccc(Nc2ncc(F)c(Nc3ccc4c(c3)OCCO4)n2)cc1OC [Compound 493, N4-(3,4-Ethylenedioxyphenyl)-5-fluoro-N2-[4-(N-methylamino)sulfonyl-3-methoxyphenyl]-2,4-pyrimidinediamine] |  |  |  | < 10 | > 10 | < 10
13 | CNS(=O)(=O)c1ccc(Nc2ncc(F)c(Nc3ccc(OC)c(OC)c3)n2)cc1OC [Compound 494, N4-(3,4-Dimethoxyphenyl)-5-fluoro-N2-[3-methoxyphenyl-4-(N-methylamino)sulfonyl]-2,4-pyrimidinediamine] | < 10 | < 10 | > 10 |  |  | 
14 | CNS(=O)(=O)c1ccc(Nc2ncc(F)c(Nc3cc(OC)cc(OC)c3)n2)cc1OC [Compound 495, N4-(3,5-Dimethoxyphenyl)-5-fluoro-N2-[3-methoxyphenyl-4-(methylamino)sulfonyl]-2,4-pyrimidinediamine] | < 10 |  | > 10 |  |  | 
15 | CNS(=O)(=O)c1ccc(Nc2ncc(F)c(Nc3ccc4c(c3)NC(=O)C(C)(C)O4)n2)cc1OC [Compound 496, N4-(2,2-Dimethyl-3-oxo-4H-benz[1,4]oxazin-6-yl)-5-fluoro-N2-[3-methoxyphenyl-4-(methylamino)sulfonyl]-2,4-pyrimidinediamine] | < 10 | < 10 | < 10 |  |  | 
16 | CNS(=O)(=O)c1ccc(Nc2ncc(F)c(Nc3ccc(Cl)c(C(F)(F)F)c3)n2)cc1OC [Compound 497, N4-(4-Chloro-3-trifluoromethylphenyl)-5-fluoro-N2-[3-methoxyphenyl-4-(methylamino)sulfonyl]-2,4-pyrimidinediamine] | < 10 | < 10 | > 10 |  |  | 
17 | CNS(=O)(=O)c1ccc(Nc2ncc(F)c(Nc3ccc(OC(F)(F)F)c(Cl)c3)n2)cc1OC [Compound 498, N4-(3-Chloro-4-trifluoromethoxyphenyl)-5-fluoro-N2-[4-(3-methoxyphenyl-N-methylamino)sulfonyl]-2,4-pyrimidinediamine] | < 10 | < 10 | > 10 |  |  | 
18 | CNS(=O)(=O)c1ccc(Nc2ncc(F)c(Nc3cccc(O)c3)n2)cc1OC [Compound 499, 5-Fluoro-N4-(3-hydroxyphenyl)-N2-[3-methoxyphenyl-4-(N-methylamino)sulfonyl]-2,4-pyrimidinediamine] | < 10 | < 10 | > 10 |  |  | 
19 | CNc1ncc(F)c(N(C)c2ccc(OC)nc2OC)n1 [Compound 500] |  |  |  | > 10 | > 10 | 

Row | SMILES | IC50 [1, 3] [µM] | IC50 [1, 4] [µM] | IC50 [2] [µM] | IC50 [1, 5] [µM] | IC50 ([2]; Homo sapiens, Mast cell) [µM] | IC50 [1, 6] [µM]
20 | CNc1ncc(F)c(N(C)c2cc(Cl)c(OC)c(Cl)c2)n1 [Compound 501] |  |  |  | > 10 | > 10 | 
21 | CNS(=O)(=O)c1ccc(Nc2nc(Cl)ncc2F)cc1OC [Compound 502, 2-Chloro-5-fluoro-N4-[4-(N-methylamino)sulfonyl-3-methoxyphenyl]-2,4-pyrimidineamine] | > 10 |  | > 10 |  |  | 
22 | COc1cc(Nc2ncc(F)c(Nc3ccc(OCCO)nc3)n2)cc(OC)c1 [Compound 503, N2-(3,5-Dimethoxyphenyl)-5-fluoro-N4-[2-(2-hydroxyethyleneoxy)pyrid-5-yl]-2,4-pyrimidinediamine] | < 10 | < 10 | > 10 |  |  | 
23 | Cc1cc(C)cc(Nc2ncc(F)c(Nc3ccc(OCCO)nc3)n2)c1 [Compound 504, N2-(3,5-Dimethylphenyl)-5-fluoro-N4-[2-(2-hydroxyethyleneoxy)pyrid-5-yl]-2,4-pyrimidinediamine] | < 10 | < 10 | > 10 |  |  | 
24 | COc1ccc(Nc2ncc(F)c(Nc3ccc(OCCO)nc3)n2)cc1Cl [Compound 505, N2-(3-Chloro-4-methoxyphenyl)-5-fluoro-N4-[2-(2-hydroxyethyleneoxy)pyrid-5-yl]-2,4-pyrimidinediamine] | < 10 | < 10 | > 10 |  |  | 
25 | C=CCNc1ncc(F)c(N(C)c2ccc3c(c2)OCCO3)n1 [Compound 506, N2-Allyl-N4-(3,4-ethylenedioxyphenyl)-5-fluoro-N4-methyl-2,4-pyrimidinediamine] |  |  |  | > 10 | > 10 | 
26 | CNS(=O)(=O)c1ccc(Nc2nc(Nc3cc(OC)cc(OC)c3)ncc2F)cc1OC [Compound 507] |  |  |  | < 10 | > 10 | < 10
27 | COc1cc(Nc2ncc(F)c(Nc3ccc(C)cn3)n2)cc(OC)c1 [Compound 508, N2-(3,5-Dimethoxyphenyl)-5-fluoro-N4-(3-methylpyrid-6-yl)-2,4-pyrimidinediamine] |  |  |  | < 10 | > 10 | < 10
28 | Cc1ccc(Nc2nc(Nc3cc(C)cc(C)c3)ncc2F)nc1 [Compound 509] |  |  |  | < 10 | > 10 | < 10
29 | COc1cc(Nc2ncc(F)c(Nc3ccc(Cl)cn3)n2)cc(OC)c1 [Compound 510] |  |  |  | < 10 | > 10 | < 10
30 | Fc1cnc(Nc2cccc(-c3ncon3)c2)nc1Nc1ccc2c(c1)OCCO2 [Compound 512] |  |  |  | < 10 | > 10 | 
31 | COc1ccc(Nc2nc(Nc3cccc(-c4ncon4)c3)ncc2F)cc1OC [Compound 513] |  |  |  | < 10 | > 10 | 
32 | CC1(C)Oc2ccc(Nc3nc(Nc4cccc(-c5ncon5)c4)ncc3F)cc2NC1=O [Compound 514, N4-(2,2-Dimethyl-3-oxo-4H-benz[1,4]oxazin-6-yl)-5-fluoro-N2-[3-(1,2,4-oxadiazol-3-yl)phenyl]-2,4-pyrimidinediamine] |  |  |  | < 10 | > 10 | 
33 | COC(=O)c1cc(Nc2ncc(F)c(Nc3ccc(OC)c(OC)c3)n2)cc(-c2ncco2)c1 [Compound 515, N4-(3,4-Dimethoxyphenyl)-5-fluoro-N2-[5-methoxycarbonyl-3-(oxazol-2-yl)phenyl]-2,4-pyrimidinediamine] |  |  |  | < 10 | > 10 | 
34 | COC(=O)c1cc(Nc2ncc(F)c(Nc3ccc4c(c3)OCCO4)n2)cc(-c2ncco2)c1 [Compound 516, N4-(3,4-Ethylenedioxyphenyl)-5-fluoro-N2-[5-methoxycarbonyl-3-(oxazol-2-yl)phenyl]-2,4-pyrimidinediamine] |  |  |  | > 10 | > 10 | 
35 | COC(=O)c1cc(Nc2ncc(F)c(Nc3ccc4c(c3)NC(=O)C(C)(C)O4)n2)cc(-c2ncco2)c1 [Compound 517, N4-(2,2-Dimethyl-3-oxo-4H-benz[1,4]oxazin-6-yl)-5-fluoro-N2-[5-methoxycarbonyl-3-(oxazol-2-yl)phenyl]-2,4-pyrimidinediamine] |  |  |  | > 10 | > 10 | 
36 | COC(=O)c1cc(Nc2ncc(F)c(Nc3cccc(O)c3)n2)cc(-c2ncco2)c1 [Compound 518, 5-Fluoro-N4-(3-hydroxyphenyl)-N2-[5-methoxycarbonyl-3-(oxazol-2-yl)phenyl]-2,4-pyrimidinediamine] |  |  |  | < 10 | > 10 | 
37 | Fc1cnc(Nc2cc(-c3ncco3)cc(C(F)(F)F)c2)nc1Nc1ccc2c(c1)OCCO2 [Compound 519, N4-(3,4-Ethylenedioxyphenyl)-5-fluoro-N2-[3-(oxazol-2-yl)-5-trifluoromethylphenyl]-2,4-pyrimidinediamine] |  |  |  | < 10 | > 10 | 
